Assay type in all cases: cell-based
Data set [1] relates to human epidermal keratinocytes (HEKa). The data set can be described thus: MTT cell viability assay on epidermal keratinocytes. To be noted: for % inhibition cell viability: HEKa, 24 hours; for effect on cell viability (in words): human epidermal keratinocytes, up to 200 μM. The protocol:
(§1) This example evaluated effects of the peptides of invention on human epidermal keratinocytes and dermal fibroblasts. Cell viability was determined with the 3-(4,5-dimethyl-2-thiazolyl)-2,5-diphenyl-2H-tetrazolium bromide (MTT) assay. The MTT assay is a colorimetric reaction based on the capacity of the mitochondrial dehydrogenase enzyme to break and transform the tetrazolium rings of MTT. Epidermal keratinocytes (HEKa) were seeded in a previously coated 96 well-plate at 50-60% confluence in 100 μL of supplemented corresponding medium. Dermal fibroblasts (HDFa) were seeded in a 96 well-plate at 70% confluence in 100 μL supplemented medium. For both cell lines, 24 hours after seeding, medium was replaced by fresh supplemented medium containing peptides dissolved at concentration range between 0.1 and 200 μM. All test substances were incubated for 24 hours at 37° C. and 5% CO2. Afterwards, medium was replaced by 0.5 mg/ml of MTT solution for 4 hours in complete medium. Then, medium was carefully removed and 150 μL/well of DMSO were added to solubilize formazan crystals. Plate was protected from light, shaken for 60 seconds and optical density was measured at 570 nm with a reference filter of 620 nm. Table F details effects of peptides of invention on keratinocytes and fibroblasts cell viability expressed as percentage of inhibition.
A general note: Tetrazolium assays rely on reduction of a dye to a coloured formazan, in cell work by metabolically active cells.

Data set [2] has as its system acetylcholine release, human neuroblastoma cell line differentiated to cholinergic neuronal phenotype. The data set can be described thus: Inhibition of KCl-induced acetylcholine release in a neuroblastoma cell line (Amplex Red). The note with it: for % Ach release inhibition: 50 mM KCl. As to the method:
To determine the compound of the invention effects on acetylcholine release, a human neuroblastoma cell line (50.000 cells/well) was used. Cells were differentiated to cholinergic neuronal phenotype for 4 days. Then, cells were pre-incubated for 60 minutes with the compounds (between 0.1 and 100 μM) as acetyl- or palmitoyl-form and conjugated with trifluoroacetate (TFA) or acetate salt. Afterwards, acetylcholine release was induced by membrane depolarization evoked by 15 minutes incubation with 50 mM KCl. Acetylcholine level in supernatants was quantified by using Amplex® Red Acetylcholine Assay Kit (Thermofisher) following manufacturer's instructions. […] Fluorescence (Ex 530 nm/Em 590 nm) was measured in FluorStar equipment. Acetylcholine content was normalized to the total protein content using BCA assay (Pierce) following manufacturer's instructions. Fluorescence measurements were normalized to the maximum signal detected with KCl stimulation in vehicle treated cells. Vesicle exocytosis disruption by the compounds of the invention lead to a decrease of acetylcholine release (Table E).

The test system of data set [3] is CGRP induced-release on peptidergic sensory neurons (dorsal root ganglia). The data set can be described thus: Inhibition of capsaicin-induced CGRP release on cultured sensory neurons (CGRP EIA). To be noted: 1 hour, 1 μM capsaicin 10 min. As to the method: The induction of the release of calcitonin-gene related peptide (CGRP) with capsaicin enables direct measurement of neuronal exocytosis (Meng J. et al., J. Cell. Sci. (2007) 15; 120(Pt 16):2864-74, and Meng J. et al., Mol. Neurobiol. (2014); 50(2):574-88).
The tested peptides were evaluated by measuring their capability of inhibiting CGRP induced-release on peptidergic sensory neurons. Dorsal root ganglia were seeded (50.000 cells/well) in a 96-well plate previously coated with poly-L-lysine and laminin. After 48 hours seeding, cells were incubated with Hank's Balanced salt solution containing peptides of invention at 20, 50 or 100 μM for 1 hour. Next, cells were stimulated for 10 min with 1 μM capsaicin at 37° C. Then, CGRP content was determined in supernatants using colorimetric based CGRP EIA (Spi-Bio Inc) following manufacturer's instructions. Absorbance measurements (405 nm) were standardized with regard to the maximum signal detected with capsaicin stimulation in vehicle treated cells. Inhibition values of CGRP release were calculated as percentages by considering maximum signal to capsaicin-induced release and minimum as non-stimulated cells. Table D details inhibition values of […] obtained for the peptides of invention.

For data set [4], the system named is human dermal fibroblasts (HDFa). Briefly: MTT cell viability assay on dermal fibroblasts. To be noted: for % inhibition cell viability: HDFa, 24 hours; for effect on cell viability (in words): dermal fibroblast, up to 200 μM. The protocol:
as §1

Residues, ends and D or L forms follow the SMILES beside them. *: point of attachment. Palmitoyl = CCCCCCCCCCCCCCCC(=O)*

Regarding `CCCCCCCCCCCCCCCC(=O)N[C@@H](CCCNC(=N)N)C(=O)N[C@@H](CCCNC(=N)N)C(=O)N[C@H](C(=O)N[C@H](C(=O)N[C@@H](CC(C)C)C(=O)N[C@H](C(=O)N[C@@H](CC(N)=O)C(=O)N[C@@H](CC(N)=O)C(=O)N[C@H](C(=O)N[C@@H](CC(C)C)C(N)=O)[C@@H](C)CC)C(C)C)C(C)C)C(C)C` [SEQ ID NO: 3 palmitoyl, RRVVLVNNIL] (Palmitoyl-RRVVLVNNIL-NH2), the “% inhibition cell viability” value in data set [1] (0.1 μM) is on record as −3.8%; in data set [1] (0.5 μM) it was −0.9%; in data set [1] (1 μM) it was 11.7%; in data set [1] (5 μM), 9.9%; in data set [1] (10 μM) it was 22.4%; in data set [1] (50 μM), 24.8%. Further, the “% inhibition cell viability” value in data set [4] (0.1 μM) came out at 6.0%; in data set [4] (0.5 μM), 15.5%; in data set [4] (1 μM), 8.7%; in data set [4] (5 μM), 25.7%; in data set [4] (10 μM), 27.2%; in data set [4] (50 μM), 24.3%. In addition, in data set [1] (at 1 µM or below), the “effect on keratinocyte viability (in words)” value was “did not modify keratinocyte and fibroblast viability”. Further, the “% Ach release inhibition” value turned out to be 57.0% in data set [2] (Acetate salt, 0.1 μM); 92.5% in data set [2] (Acetate salt, 1 μM); 86.7% in data set [2] (Acetate salt, 10 μM); 75.4% in data set [2] (TFA salt, 5 μM); 81.8% in data set [2] (TFA salt, 10 μM); 82.8% in data set [2] (TFA salt, 50 μM). The “activity on ACh release (in words)” value in data set [2] (lowest concentration tested 0.1 μM) is on record as “active”. The “% CGRP release inhibition” value in data set [3] (peptide 20 μM) is reported as 34.0%; in data set [3] (peptide 50 μM) it was 74.8%. For the same compound, the “effect on fibroblast viability (in words)” value in data set [4] (at 1 µM or below) was “did not modify keratinocyte and fibroblast viability”.
For the compound “Ac-HYWRELQYR-NH2 [SEQ ID NO: 1 acetyl, HYWRELQYR]”, the “% inhibition cell viability” value in data set [1] (1 μM) is given as −1.4%; in data set [1] (5 μM) it was 8.8%; in data set [1] (10 μM), 1.7%; in data set [1] (50 μM), 7.4%; in data set [1] (100 μM), 6.2%; in data set [1] (200 μM), 9.5%. In addition, the “% inhibition cell viability” value in data set [4] (1 μM) amounted to 0.2%; in data set [4] (5 μM), 9.7%; in data set [4] (10 μM), 33%; in data set [4] (50 μM), 3.9%; in data set [4] (100 μM) it was 6.8%; in data set [4] (200 μM), 2.9%. Moreover, the “effect on cell viability (in words)” value in data set [1] and in data set [4] was “did not modify cell viability” each time. Moreover, the “% Ach release inhibition” value in data set [2] (Acetate salt, 1 μM) was 27.9%; in data set [2] (Acetate salt, 10 μM) it was 55.9%; in data set [2] (TFA salt, 10 μM), 87.9%; in data set [2] (TFA salt, 50 μM) it was 33.6%; in data set [2] (TFA salt, 100 μM), 65.9%. Further, the “% CGRP release inhibition” value is 10.1% in data set [3] (peptide 20 μM) and 39.1% in data set [3] (peptide 100 μM).
For the compound “Ac-WEQEFLRR-NH2 [SEQ ID NO: 5 acetyl, WEQEFLRR]”, the “% inhibition cell viability” value in data set [1] (1 μM) was −5.7%; in data set [1] (5 μM) it was 0.8%; in data set [1] (10 μM), 4.2%; in data set [1] (50 μM), 4.3%; in data set [1] (100 μM), 10.4%; in data set [1] (200 μM), 23.7%. For the same compound, the “% inhibition cell viability” value in data set [4] (1 μM) came out at 9.3%; in data set [4] (5 μM), 10.0%; in data set [4] (10 μM) it was 12.1%; in data set [4] (50 μM) it was 10.0%; in data set [4] (100 μM), 15.0%; in data set [4] (200 μM) it was 14.7%. Besides, the “effect on cell viability (in words)” value in data set [1] and in data set [4] was “did not modify cell viability” throughout. Moreover, the “% Ach release inhibition” value in data set [2] (Acetate salt, 0.1 μM) is “around 40%”; in data set [2] (TFA salt, 0.1 μM), 19.0%; in data set [2] (TFA salt, 1 μM), 22.0%; in data set [2] (TFA salt, 10 μM) it was 52.8%; in data set [2] (TFA salt, 50 μM) it was 51.5%; in data set [2] (TFA salt, 100 μM), 81.6%.
For the compound `CCCCCCCCCCCCCCCC(=O)N[C@@H](CC(C)C)C(=O)N[C@@H](CCCNC(=N)N)C(=O)N[C@H](C(=O)N[C@@H](CCC(N)=O)C(=O)N[C@@H](CCSC)C(=O)N[C@H](C(=O)N[C@@H](CC(N)=O)C(=O)N[C@@H](CCSC)C(=O)N[C@@H](Cc1ccccc1)C(=O)N[C@@H](CC(C)C)C(N)=O)C(C)C)C(C)C` [SEQ ID NO: 4 palmitoyl, LRVQMVNMFL] (Palmitoyl-LRVQMVNMFL-NH2), the “% inhibition cell viability” value in data set [1] (0.1 μM) is reported as −6.2%; in data set [1] (0.5 μM) it was 1.0%; in data set [1] (1 μM), −7.6%; in data set [1] (5 μM), 7.0%; in data set [1] (10 μM), 18.0%; in data set [1] (50 μM) it was 34.2%. Moreover, the “% inhibition cell viability” value in data set [4] (0.1 μM) was determined as 15.2%; in data set [4] (0.5 μM) it was 26.9%; in data set [4] (1 μM) it was 34.2%; in data set [4] (5 μM), 42.6%; in data set [4] (10 μM), 40.9%; in data set [4] (50 μM), 37.7%. Besides, the “effect on keratinocyte viability (in words)” value in data set [1] (assessed below 50 μM) was “did not modify keratinocyte viability”. In addition, the “% Ach release inhibition” value is recorded as 26.4% in data set [2] (TFA salt, 5 μM) and 83.0% in data set [2] (TFA salt, 50 μM).
`CCCCCCCCCCCCCCCC(=O)N[C@@H](Cc1c[nH]c2ccccc12)C(=O)N[C@@H](CCC(=O)O)C(=O)N[C@@H](CCC(N)=O)C(=O)N[C@@H](CCC(=O)O)C(=O)N[C@@H](Cc1ccccc1)C(=O)N[C@@H](CC(C)C)C(=O)N[C@@H](CCCNC(=N)N)C(=O)N[C@@H](CCCNC(=N)N)C(N)=O` [SEQ ID NO: 5 palmitoyl, WEQEFLRR] (Palmitoyl-WEQEFLRR-NH2): the “% inhibition cell viability” value in data set [1] (1 μM) is −2.9%; in data set [1] (5 μM), −5.5%; in data set [1] (10 μM), −6.3%; in data set [1] (50 μM), −24.3%; in data set [4] (1 μM), −0.2%; in data set [4] (5 μM), 10.3%. Moreover, the “% inhibition cell viability” value in data set [4] (10 μM) turned out to be 7.6%; in data set [4] (50 μM), 18.0%. Besides, the “% Ach release inhibition” value in data set [2] (TFA salt, 0.1 μM) amounted to 16.4%; in data set [2] (TFA salt, 1 μM), 16.1%; in data set [2] (TFA salt, 5 μM) it was 25.1%; in data set [2] (TFA salt, 10 μM) it was 24.7%; in data set [2] (TFA salt, 50 μM) it was 17.9%.
